Laboratory results taken from the supplement of paper PMC7840683.
Structures can show the parent of a compound that is named as a salt.

System: HepaRG
Assay: LDH release cytotoxicity, % of total lysis control; higher = more cytotoxic
Conditions: 48 h
Method in brief: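 Duplicate wells of single-lot HepaRG cells, grown on collagen I-coated 96-well plates, received eight-point half-log series of test chemicals with 100 µM as the top concentration. Exposure lasted 48 h in serum-free induction medium with 0.5% DMSO, while total lysis wells received 0.1% Triton X. Resorufin fluorescence (CytoTox-ONE, Tecan Safire) was used to quantify LDH leaked into 50 µL of spent medium. Values for percent cytotoxicity were normalized to on-plate vehicle and total lysis controls and averaged across the duplicates.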

N#Cc1nn(-c2c(Cl)cc(C(F)(F)F)cc2Cl)c(N)c1S(=O)C(F)(F)F (stereo not drawn) [Fipronil]
Conditions	LDH release cytotoxicity [%]
0.0317809 µM	-1.15
0.1005 µM	-0.938
0.317809 µM	-1.37
1.005 µM	-2.05
3.17809 µM	-1.97
10.05 µM	-1.68
31.7809 µM	19.3
100.5 µM	59.8

O=c1c(-c2ccc(O)cc2)coc2cc(O)ccc12 [7,4'-Dihydroxyisoflavone]
Conditions	LDH release cytotoxicity [%]
0.03162 µM	-1.77
0.1 µM	-1.95
0.3162278 µM	-1.45
1 µM	-2.21
3.16228 µM	-1.87
10 µM	-0.343
31.6228 µM	-0.854
100 µM	0.307

Nc1ccc(Cl)cc1N [4-Chloro-1,2-diaminobenzene]
Conditions	LDH release cytotoxicity [%]
0.03162 µM	-0.924
0.1 µM	-0.99
0.3162278 µM	-1.38
1 µM	-1.19
3.16228 µM	-0.451
10 µM	-0.557
31.6228 µM	-0.208
100 µM	-0.194

CCC(=C(c1ccccc1)c1ccc(OCCN(C)C)cc1)c1ccccc1 [Tamoxifen citrate]
Conditions	LDH release cytotoxicity [%]
0.02893 µM	-0.702
0.0915 µM	-0.863
0.289348 µM	-1.43
0.915 µM	-1.01
2.89348 µM	0.0489
9.15 µM	0.563
28.9348 µM	9.57
91.5 µM	88.7

CCOC(=O)C(O)(c1ccc(Cl)cc1)c1ccc(Cl)cc1 [Chlorobenzilate]
Conditions	LDH release cytotoxicity [%]
0.03162 µM	-0.592
0.1 µM	-1.28
0.3162278 µM	-1.55
1 µM	-2.17
3.16228 µM	-2.04
10 µM	-1.17
31.6228 µM	-0.669
100 µM	3.46

C#CCOC(=O)C(C)Oc1ccc(Oc2ncc(Cl)cc2F)cc1 (stereo not drawn) [Clodinafop-propargyl]
Conditions	LDH release cytotoxicity [%]
0.03162 µM	-1.35
0.1 µM	-1.3
0.3162278 µM	-1.68
1 µM	-0.544
3.16228 µM	-1.29
10 µM	-0.851
31.6228 µM	-0.0728
100 µM	0.27

O=C(O)c1cccc(Oc2ccccc2)c1 [3-Phenoxybenzoic acid]
Conditions	LDH release cytotoxicity [%]
0.0253 µM	2.02
0.08 µM	1.68
0.252982 µM	1.75
0.8 µM	0.842
2.52982 µM	0.659
8 µM	-0.233
25.2982 µM	-0.367
80 µM	-1.57

CC#CC1(O)CCC2C3CCC4=CC(=O)CCC4=C3C(c3ccc(N(C)C)cc3)CC21C (stereo not drawn) [Mifepristone]
Conditions	LDH release cytotoxicity [%]
0.03162 µM	-0.549
0.1 µM	-1.11
0.3162278 µM	-0.633
1 µM	2.47
3.16228 µM	17.4
10 µM	31.5
31.6228 µM	42.2
100 µM	60.9

CNS(=O)(=O)c1cc(C(=O)N2CCC(CCN3C4CCC3CC(n3c(C)nc5ccccc53)C4)(c3cccc(F)c3)CC2)c(Cl)cc1F (stereo not drawn)
Conditions	LDH release cytotoxicity [%]
0.03162 µM	-1.92
0.1 µM	-0.773
0.3162278 µM	-1.36
1 µM	-1.37
3.16228 µM	-1.08
10 µM	-0.27
31.6228 µM	10.5
100 µM	23.1

CCON=C(CC)C1C(=O)CC(c2c(C)cc(C)cc2C)CC1=O (stereo not drawn) [Tralkoxydim]
Conditions	LDH release cytotoxicity [%]
0.03162 µM	-1.61
0.1 µM	-2.54
0.3162278 µM	-2.84
1 µM	-1.69
3.16228 µM	-3.18
10 µM	-2.04
31.6228 µM	-1.88
100 µM	-0.758

O=C(O)c1cc(N=Nc2ccc(S(=O)(=O)Nc3ccccn3)cc2)ccc1O [Sulfasalazine]
Conditions	LDH release cytotoxicity [%]
0.03162 µM	-0.789
0.1 µM	-1.61
0.3162278 µM	-0.498
1 µM	-0.487
3.16228 µM	-0.767
10 µM	0.367
31.6228 µM	0.113
100 µM	1.04

O=C(OC[C@H]1O[C@@H](OC(=O)c2cc(O)c(O)c(OC(=O)c3cc(O)c(O)c(O)c3)c2)[C@H](OC(=O)c2cc(O)c(O)c(OC(=O)c3cc(O)c(O)c(O)c3)c2)[C@@H](OC(=O)c2cc(O)c(O)c(OC(=O)c3cc(O)c(O)c(O)c3)c2)[C@@H]1OC(=O)c1cc(O)c(O)c(OC(=O)c2cc(O)c(O)c(O)c2)c1)c1cc(O)c(O)c(OC(=O)c2cc(O)c(O)c(O)c2)c1 [Tannic acid]
Conditions	LDH release cytotoxicity [%]
0.0096449 µM	-1.06
0.0305 µM	-1.19
0.0964495 µM	-2.39
0.305 µM	-2.34
0.964495 µM	-3.92
3.05 µM	-4.5
9.64495 µM	-0.0405
30.5 µM	5.317

CC(C)Oc1cc(-n2nc(C(C)(C)C)oc2=O)c(Cl)cc1Cl [Oxadiazon]
Conditions	LDH release cytotoxicity [%]
0.03162 µM	-0.101
0.1 µM	-0.564
0.3162278 µM	-0.449
1 µM	0.329
3.16228 µM	0.576
10 µM	0.044
31.6228 µM	0.449
100 µM	13.02

c1ccc2c(c1)Cc1ccccc1-2 [Fluorene]
Conditions	LDH release cytotoxicity [%]
0.03162 µM	-1.56
0.1 µM	-1
0.3162278 µM	-0.941
1 µM	-0.74
3.16228 µM	-0.5867
10 µM	-1.05
31.6228 µM	-0.324
100 µM	-0.2

O=Cc1ccco1 [Furfural]
Conditions	LDH release cytotoxicity [%]
0.03162 µM	-1.57
0.1 µM	-2.07
0.3162278 µM	-2.64
1 µM	-3.82
3.16228 µM	-4.51
10 µM	-0.135
31.6228 µM	-0.567
100 µM	3.05

O=C1c2c(O)cccc2Cc2cccc(O)c21 [Anthralin]
Conditions	LDH release cytotoxicity [%]
0.03162 µM	-2.38
0.1 µM	-0.784
0.3162278 µM	-1.25
1 µM	-0.891
3.16228 µM	-0.148
10 µM	-1.12
31.6228 µM	-0.933
100 µM	-0.256

O=P(O)(O)CCCl [Ethephon]
Conditions	LDH release cytotoxicity [%]
0.03162 µM	-2.07
0.1 µM	-1.57
0.3162278 µM	-2.29
1 µM	-1.94
3.16228 µM	-2.12
10 µM	-1.39
31.6228 µM	-0.276
100 µM	0.34

CC(C)=CC1C(C(=O)OCN2C(=O)C3=C(CCCC3)C2=O)C1(C)C (stereo not drawn) [Tetramethrin]
Conditions	LDH release cytotoxicity [%]
0.03162 µM	-1.77
0.1 µM	-1.73
0.3162278 µM	-2
1 µM	-2.13
3.16228 µM	-1.65
10 µM	-1.51
31.6228 µM	-0.61
100 µM	0.736

O=C(O)C1C2CCC(O2)C1C(=O)O (stereo not drawn) [Endothal]
Conditions	LDH release cytotoxicity [%]
0.03162 µM	-1.48
0.1 µM	-1.31
0.3162278 µM	-0.8
1 µM	-0.517
3.16228 µM	-1.16
10 µM	-1
31.6228 µM	1.01
100 µM	21.8

CCOS(=O)(=O)OCC [Diethyl sulfate]
Conditions	LDH release cytotoxicity [%]
0.03162 µM	-1.93
0.1 µM	-1.47
0.3162278 µM	-1.68
1 µM	-2.05
3.16228 µM	-1.61
10 µM	-1.77
31.6228 µM	-1.5
100 µM	0.71

Nc1cc2c3c(c1)C(c1ccccc1)=NC(NC(=O)c1cccnc1)C(=O)N3CC2 (stereo not drawn) [CI-1044]
Conditions	LDH release cytotoxicity [%]
0.03162 µM	-1.32
0.1 µM	-0.234
0.3162278 µM	-1.37
1 µM	-0.0936
3.16228 µM	-0.301
10 µM	0.515
31.6228 µM	0.683
100 µM	0.815

COP(N)(=O)SC (stereo not drawn) [Methamidophos]
Conditions	LDH release cytotoxicity [%]
0.03162 µM	5.78
0.1 µM	2.73
0.3162278 µM	2.4
1 µM	3.67
3.16228 µM	3.79
10 µM	3.76
31.6228 µM	5.99
100 µM	6.57

Nc1c(Cl)c(F)nc(OCC(=O)O)c1Cl [Fluroxypyr]
Conditions	LDH release cytotoxicity [%]
0.03162 µM	-0.285
0.1 µM	-1.46
0.3162278 µM	-1.77
1 µM	-1.29
3.16228 µM	-1.07
10 µM	-0.274
31.6228 µM	0.368
100 µM	1.75

CCOC(=O)c1ccccc1C(=O)OCC [Diethyl phthalate]
Conditions	LDH release cytotoxicity [%]
0.03162 µM	-0.196
0.1 µM	-0.436
0.3162278 µM	-0.318
1 µM	-1.12
3.16228 µM	-0.475
10 µM	-1.03
31.6228 µM	-0.196
100 µM	5.77

CCNc1nc(Cl)nc(NC(C)C)n1 [Atrazine]
Conditions	LDH release cytotoxicity [%]
0.03162 µM	-1.43
0.1 µM	-1.36
0.3162278 µM	-1.63
1 µM	-2.15
3.16228 µM	-1.57
10 µM	-1.86
31.6228 µM	-1.38
100 µM	-0.59

Cc1ccc(C)c(O)c1 [2,5-Dimethylphenol]
Conditions	LDH release cytotoxicity [%]
0.03162 µM	-1.02
0.1 µM	-1.37
0.3162278 µM	-1.74
1 µM	-1.34
3.16228 µM	-1.4
10 µM	-0.854
31.6228 µM	-0.822
100 µM	0.0909
